Results from ChEMBL document CHEMBL2157944, “Evaluation of structure-derived pharmacophore of soluble epoxide hydrolase inhibitors by virtual screening” (Bioorg Med Chem Lett, 2012).
pIC50: −log10 of the molar value.

Experiments:
[1] = biological target: T1, Bifunctional epoxide hydrolase 2 (Homo sapiens, UniProt P34913); test: Inhibition of sEH using (3-Phenyl-oxiranyl)-acetic acid cyano-(6-methoxy-naphthalen-2-yl)-methyl ester) as substrate incubated for 15 mins prior to substrate addition measured every min for 15 mins by fluorimetric analysis
T1 sequence (P34913 whole entry): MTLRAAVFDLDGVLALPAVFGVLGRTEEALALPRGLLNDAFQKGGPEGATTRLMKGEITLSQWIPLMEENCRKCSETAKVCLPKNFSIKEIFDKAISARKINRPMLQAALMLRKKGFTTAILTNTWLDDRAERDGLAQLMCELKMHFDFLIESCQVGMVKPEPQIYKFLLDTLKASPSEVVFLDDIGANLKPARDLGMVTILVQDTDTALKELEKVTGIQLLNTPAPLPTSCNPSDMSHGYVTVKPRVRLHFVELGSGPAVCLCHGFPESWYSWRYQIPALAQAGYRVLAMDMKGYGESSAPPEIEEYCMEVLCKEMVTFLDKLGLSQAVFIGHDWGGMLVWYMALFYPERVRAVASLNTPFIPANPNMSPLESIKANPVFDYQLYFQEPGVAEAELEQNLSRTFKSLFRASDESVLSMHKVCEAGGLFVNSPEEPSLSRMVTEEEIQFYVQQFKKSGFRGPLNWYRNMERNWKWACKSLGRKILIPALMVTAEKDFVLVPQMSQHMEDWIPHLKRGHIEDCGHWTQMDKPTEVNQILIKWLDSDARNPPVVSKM

[2] = Solubility of the compound; type: physicochemical
[3] = Solubility of the compound at >100 uM; type: physicochemical

Compound | pIC50 [1] | also measured
O=C(NCCCNc1ncc(-c2ccncc2)c(C2CC2)n1)c1ccccn1 | 4.60 | 
O=C(Nc1cccc(Cl)c1)OCCCNS(=O)(=O)c1cccc([N+](=O)[O-])c1 | 5.49 | 
NS(=O)(=O)c1ccc(CNc2ncc(-c3ccncc3)c(C3CC3)n2)cc1 |  | solubility [2]: Insoluble
O=C(Nc1cccc(O)c1)OCC1c2ccccc2-c2ccccc21 | 5.26 | 
Cc1cc(-c2cnc(NCCCc3ccccn3)nc2C(C)C)on1 |  | solubility [3]: Insoluble
